# Reference: ChEMBL document CHEMBL5729124, “Autotaxin inhibitor compounds” (2022)
# Molecular target: Autotaxin (Homo sapiens, UniProt Q13822)
# Experiment: Human Autotaxin Assay: ATX activity is assayed in concentrated conditioned media from Hep3B human hepatocellular carcinoma cells by measuring the amount of choline released from the substrate, lysophosphatidylcholine (LPC) as it is cleaved to LPA. Conditioned media is collected from confluent Hep3B cells and concentrated 20-fold using Centriprep-30 filter devices (Millipore).
row,SMILES,IC50 [nM]
1,CCCn1cc(-n2c(Br)c(Sc3cccc(C(=O)O)c3)c3ccc(Cl)cc32)cn1,< 500
2,C#CCCCCn1cc(-n2c(C3CC3)c(Sc3cccc(C(=O)O)c3F)c3ccc(Cl)c(F)c32)cn1,< 500
3,CC(C)(CO)Cn1cc(-n2c(C3CC3)c(Sc3cccc(C(=O)O)c3F)c3ccc(Cl)c(F)c32)cn1,< 500
